# Reference: PMC9867837 (Cancer letters, 2022)
# Key:
# CYP2D6 = biological target: T1, CYP2D6 (Homo sapiens, UniProt P10635); assay: CYP inhibition, CYP2D6; assay type: in vitro ADME; conditions: read-out: CYP Inhibition CYP2D6 % Inh at 10 μM
# T1 construct: Eurofins-CEREP (contract research organisation that ran the assay)
# Procedure: (§1) The in vivo activity of a compound is influenced by its overall bioavailability, which is also driven by parameters, such as solubility, permeability, and metabolism. […] These values are all above the industry cut-off of 60 μg/ml. […] It has CLint in human hepatocytes of 16 μL/min/10^6 cells, which falls into moderate stability range [43].
# CYP2C9 = biological target: T2, CYP2C9 (Homo sapiens, UniProt P11712); assay: CYP inhibition, CYP2C9; assay type: in vitro ADME; conditions: read-out: CYP Inhibition CYP2C9 % Inh at 10 μM
# T2 construct: Eurofins-CEREP (contract research organisation that ran the assay)
# T2 sequence (P11712 whole entry, species assumed): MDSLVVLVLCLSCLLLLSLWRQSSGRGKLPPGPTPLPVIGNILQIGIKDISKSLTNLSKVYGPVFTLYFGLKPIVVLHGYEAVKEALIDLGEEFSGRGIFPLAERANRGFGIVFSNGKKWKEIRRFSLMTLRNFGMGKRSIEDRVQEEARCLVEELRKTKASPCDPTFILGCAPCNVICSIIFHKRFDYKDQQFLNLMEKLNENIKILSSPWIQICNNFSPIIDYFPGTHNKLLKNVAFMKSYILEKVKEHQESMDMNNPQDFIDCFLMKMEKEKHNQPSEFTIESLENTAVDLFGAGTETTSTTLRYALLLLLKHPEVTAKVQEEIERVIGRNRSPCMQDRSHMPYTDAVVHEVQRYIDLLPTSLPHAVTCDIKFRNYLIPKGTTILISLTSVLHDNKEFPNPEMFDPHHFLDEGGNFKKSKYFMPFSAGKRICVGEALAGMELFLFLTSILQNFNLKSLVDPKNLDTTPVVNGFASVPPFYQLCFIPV
# Procedure: as §1
# MDA-MB-231 cells [1] = assay: Soft-agar colony formation; assay type: cell-based, human; conditions: 0.3–2 μM H182
# Procedure: These studies were performed as previously reported. Details are presented in Supplementary Information, “Methods”.
# These studies were performed as previously reported . For the clonogenic survival assay, briefly, cells were seeded as single-cell (500 cells per well) in 6 -well plates, then untreated (DMSO control) or treated once the following day with H182 and allowed to grow until large colonies were visible, which were stained with crystal violet for 4 h and imaged with a FluorChem imaging system (Protein Simple, Santa Clara, CA).
# For the soft-agar assay, briefly, each well contained a bottom layer of 1 ml of 1% agarose in complete DMEM and a top layer of 1 ml of 0.5% agarose in complete DMEM containing 500 cells. After the upper agar layer containing cells solidified, 1 ml culture medium containing H182 (0-2 µM) or DMSO (control) was overlaid, and the cultures were maintained at 37 °C in the incubator, with the medium replacement every 3-4 days with fresh medium that contains the inhibitor or not. Cells were allowed to culture for 3-4 weeks until large colonies were visible under microscope. The colonies were stained with crystal violet and […]
# 1.2.8. Confocal microscopy studies
# 4 cells in 1 ml) in logarithmic
# These studies were performed as previously reported. […]
# [2] = biological target: T3, norepinephrine transporter (NET) (Homo sapiens, UniProt P23975); assay: CEREP SafetyScreen44, norepinephrine transporter; assay type: binding
# T3 construct: Eurofins-CEREP (SafetyScreen44 panel)
# T3 sequence (P23975 whole entry): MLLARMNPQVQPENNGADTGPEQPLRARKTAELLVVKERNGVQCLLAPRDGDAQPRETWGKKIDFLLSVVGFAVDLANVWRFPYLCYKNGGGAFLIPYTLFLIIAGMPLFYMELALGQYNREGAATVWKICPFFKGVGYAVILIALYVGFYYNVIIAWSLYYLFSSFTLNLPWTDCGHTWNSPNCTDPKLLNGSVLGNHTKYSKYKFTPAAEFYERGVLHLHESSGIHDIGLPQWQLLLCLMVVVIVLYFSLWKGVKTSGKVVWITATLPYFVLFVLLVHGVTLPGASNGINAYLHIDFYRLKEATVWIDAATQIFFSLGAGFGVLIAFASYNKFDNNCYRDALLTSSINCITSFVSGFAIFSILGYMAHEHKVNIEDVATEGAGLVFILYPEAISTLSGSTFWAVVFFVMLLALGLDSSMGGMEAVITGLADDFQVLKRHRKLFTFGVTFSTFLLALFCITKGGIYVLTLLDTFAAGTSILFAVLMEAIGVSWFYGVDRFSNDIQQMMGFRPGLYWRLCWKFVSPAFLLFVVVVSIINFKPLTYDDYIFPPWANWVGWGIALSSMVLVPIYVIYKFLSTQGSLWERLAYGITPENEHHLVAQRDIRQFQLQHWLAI
# Plasma stability, mouse = assay type: in vitro ADME
# Procedure: (§2) Solubility, human (HLM) and mouse liver microsomal (MLM), and plasma stability studies were performed by Eurofins Cerep Panlabs and Eurofin Discovery Services (www.eurofins.com/PharmaDiscovery), while protein binding studies were performed by Sanford Burnham Prebys Chemical Biology & Drug Discovery Core using standard protocols.
# MDA-MB-231 cells [3] = assay: Annexin V/propidium iodide staining with flow cytometry; assay type: cell-based, human; conditions: 3 μM H182 for 3 h
# Procedure: For apoptosis analysis, annexin V/propidium iodide (PI) staining was performed. Details are presented in Supplementary Information, “Methods”. […]
# (§3) software and Prism GraphPad software (San Diego, CA), using the one-site model. Control experiments were carried out by titration H182 into buffer, buffer into Stat3, and buffer into buffer. The three controls were used as a composite for the ITC experiment to subtract the heat of dilution and background noise from […]
# (§4) 1.2.11. Wound healing assay for migration
# (§5) Studies were performed as previously reported [1 -3]. Briefly, cells were cultured in 6-well plates, and the monolayer of cells was scratched with a p10 pipet tip. Subsequently, fresh medium containing inhibitors or DMSO (control) was added, and then immediately, cells were imaged with a Canon Powershot A640 digital camera under a phase contrast with the Zeiss Axiovert 200 inverted microscope at 10X magnification and noted as the zero time-point. Following culture for 22 h to allow cells to migrate into the denuded area, the culture was then imaged again at the same field that was marked on the plate.
# (§6) 1.2.12. Annexin V binding/apoptosis and flow cytometric analysis
# (§7) For apoptosis analysis, annexin V/propidium iodide (PI) staining was performed. […] The annexin V- and/or PI-positive cells were analyzed by FACScan flow cytometer (BD Biosciences) and data was analyzed using FlowJo software. […]
# MDA-MB-231 cells [4] = assay: Wound healing (scratch) assay for migration; assay type: cell-based, human; conditions: one-time treatment, 22 h
# Procedure: Studies were performed as previously reported. Details are presented in Supplementary Information, “Methods”. […]
# as §3, §4, §5, §6, §7
# [5] = biological target: T4, Stat1:Stat3 DNA-binding activity (Mus musculus, UniProt P42227); assay: EMSA of Stat1:Stat3 DNA-binding activity in nuclear extracts of EGF-stimulated NIH3T3/hEGFR; assay type: biochemical; conditions: Fig. 1C, hSIE probe, 30 min
# T4 construct: endogenous in cells; host or cells: EGF-stimulated NIH3T3/hEGFR fibroblasts (nuclear extract)
# T4 sequence (P42227 2-770 limits assumed): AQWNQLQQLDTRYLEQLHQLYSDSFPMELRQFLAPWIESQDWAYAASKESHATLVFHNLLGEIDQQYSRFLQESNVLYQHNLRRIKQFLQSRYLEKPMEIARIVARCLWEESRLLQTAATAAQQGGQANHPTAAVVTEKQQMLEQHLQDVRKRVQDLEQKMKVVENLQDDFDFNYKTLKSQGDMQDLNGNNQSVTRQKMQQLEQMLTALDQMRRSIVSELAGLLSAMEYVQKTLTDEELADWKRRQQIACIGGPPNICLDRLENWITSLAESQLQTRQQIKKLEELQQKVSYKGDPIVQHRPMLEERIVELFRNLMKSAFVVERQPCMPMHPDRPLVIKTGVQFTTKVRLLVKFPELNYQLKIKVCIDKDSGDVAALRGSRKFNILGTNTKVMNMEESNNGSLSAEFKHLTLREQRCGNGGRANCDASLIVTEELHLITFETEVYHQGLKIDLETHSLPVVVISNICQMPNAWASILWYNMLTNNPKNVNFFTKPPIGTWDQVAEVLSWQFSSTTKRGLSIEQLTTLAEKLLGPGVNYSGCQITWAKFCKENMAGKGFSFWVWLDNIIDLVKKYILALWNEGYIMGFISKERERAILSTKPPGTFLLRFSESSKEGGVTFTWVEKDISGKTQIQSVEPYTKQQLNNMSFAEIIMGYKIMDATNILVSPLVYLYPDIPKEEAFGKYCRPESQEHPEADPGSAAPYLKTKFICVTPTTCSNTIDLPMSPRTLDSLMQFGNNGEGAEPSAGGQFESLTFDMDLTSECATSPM
# T4 sequence (P42225 2-749 partner limits assumed): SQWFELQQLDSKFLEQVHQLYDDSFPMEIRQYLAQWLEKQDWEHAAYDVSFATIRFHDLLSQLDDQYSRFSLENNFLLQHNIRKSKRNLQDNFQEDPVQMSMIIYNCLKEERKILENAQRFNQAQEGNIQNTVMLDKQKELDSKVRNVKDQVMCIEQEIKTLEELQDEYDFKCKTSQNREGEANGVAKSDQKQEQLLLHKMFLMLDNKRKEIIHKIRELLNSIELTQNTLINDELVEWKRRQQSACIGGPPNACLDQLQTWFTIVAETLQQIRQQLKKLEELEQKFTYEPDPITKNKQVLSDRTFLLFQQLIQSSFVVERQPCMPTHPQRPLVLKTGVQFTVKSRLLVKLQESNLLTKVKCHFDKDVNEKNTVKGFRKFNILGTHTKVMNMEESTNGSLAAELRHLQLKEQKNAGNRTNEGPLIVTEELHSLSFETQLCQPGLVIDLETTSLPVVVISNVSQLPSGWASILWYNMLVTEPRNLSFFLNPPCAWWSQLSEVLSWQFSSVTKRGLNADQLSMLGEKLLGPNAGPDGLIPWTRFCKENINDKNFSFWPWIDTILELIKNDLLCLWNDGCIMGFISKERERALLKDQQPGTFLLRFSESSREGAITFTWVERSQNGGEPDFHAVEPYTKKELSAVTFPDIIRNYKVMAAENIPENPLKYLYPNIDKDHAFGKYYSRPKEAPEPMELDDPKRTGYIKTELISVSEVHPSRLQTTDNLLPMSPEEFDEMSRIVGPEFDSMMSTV
# Procedure: Details are presented in Supplementary Information, “Methods”. […]
# min, prior to incubation with the radiolabeled probe for 30 min at 30 °C and subjecting to EMSA analysis.
# In another case, the nuclear extract was pre-incubated with the radiolabeled probe for 30 min at 30 °C prior to incubation with increasing concentration of H182 at room temperature for 30 min and subjecting to EMSA analysis. Bands corresponding to Stats DNA- binding activities were scanned and quantified using ImageJ and plotted as a percentage of control (vehicle) against the concentration of the inhibitor, from which the IC50 values were derived .
# hERG = biological target: T5, hERG (Homo sapiens, UniProt Q12809); assay: hERG Qpatch assay; assay type: cell-based
# T5 construct: Eurofins-CEREP (contract research organisation that ran the assay)
# T5 sequence (Q12809 whole entry): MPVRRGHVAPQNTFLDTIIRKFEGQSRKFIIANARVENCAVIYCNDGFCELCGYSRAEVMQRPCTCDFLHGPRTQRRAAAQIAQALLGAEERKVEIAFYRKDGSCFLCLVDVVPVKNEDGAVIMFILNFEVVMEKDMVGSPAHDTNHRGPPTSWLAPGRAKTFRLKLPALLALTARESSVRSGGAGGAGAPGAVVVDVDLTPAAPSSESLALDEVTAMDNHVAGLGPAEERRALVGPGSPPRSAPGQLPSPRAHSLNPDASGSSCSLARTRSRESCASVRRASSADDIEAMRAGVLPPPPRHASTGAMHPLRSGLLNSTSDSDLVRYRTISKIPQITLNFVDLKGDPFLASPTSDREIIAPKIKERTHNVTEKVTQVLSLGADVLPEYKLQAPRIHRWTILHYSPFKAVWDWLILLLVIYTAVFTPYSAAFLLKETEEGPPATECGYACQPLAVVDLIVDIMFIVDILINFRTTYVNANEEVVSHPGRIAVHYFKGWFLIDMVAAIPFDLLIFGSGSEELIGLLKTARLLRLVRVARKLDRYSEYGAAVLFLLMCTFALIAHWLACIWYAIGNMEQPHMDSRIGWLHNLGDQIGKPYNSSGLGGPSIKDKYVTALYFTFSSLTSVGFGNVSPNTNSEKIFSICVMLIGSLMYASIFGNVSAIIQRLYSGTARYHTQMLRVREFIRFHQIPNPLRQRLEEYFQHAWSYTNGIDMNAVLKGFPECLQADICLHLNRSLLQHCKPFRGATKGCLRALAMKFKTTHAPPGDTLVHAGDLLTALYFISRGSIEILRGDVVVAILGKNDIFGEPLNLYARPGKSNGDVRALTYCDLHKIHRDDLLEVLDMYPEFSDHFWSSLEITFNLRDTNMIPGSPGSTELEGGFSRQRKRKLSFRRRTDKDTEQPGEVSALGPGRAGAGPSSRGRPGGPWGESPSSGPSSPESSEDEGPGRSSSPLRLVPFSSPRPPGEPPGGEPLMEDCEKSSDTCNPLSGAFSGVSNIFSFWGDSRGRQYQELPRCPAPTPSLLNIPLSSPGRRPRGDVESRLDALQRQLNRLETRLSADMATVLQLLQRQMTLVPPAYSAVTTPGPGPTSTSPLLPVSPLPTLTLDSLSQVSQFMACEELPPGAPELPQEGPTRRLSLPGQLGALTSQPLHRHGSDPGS
# [6] = Human liver microsome stability; assay type: in vitro ADME; conditions: liver microsomes, read-out: Metabolic Stability HLM t1/2
# Procedure: as §2
# T1 sequence (P10635 whole entry, species assumed): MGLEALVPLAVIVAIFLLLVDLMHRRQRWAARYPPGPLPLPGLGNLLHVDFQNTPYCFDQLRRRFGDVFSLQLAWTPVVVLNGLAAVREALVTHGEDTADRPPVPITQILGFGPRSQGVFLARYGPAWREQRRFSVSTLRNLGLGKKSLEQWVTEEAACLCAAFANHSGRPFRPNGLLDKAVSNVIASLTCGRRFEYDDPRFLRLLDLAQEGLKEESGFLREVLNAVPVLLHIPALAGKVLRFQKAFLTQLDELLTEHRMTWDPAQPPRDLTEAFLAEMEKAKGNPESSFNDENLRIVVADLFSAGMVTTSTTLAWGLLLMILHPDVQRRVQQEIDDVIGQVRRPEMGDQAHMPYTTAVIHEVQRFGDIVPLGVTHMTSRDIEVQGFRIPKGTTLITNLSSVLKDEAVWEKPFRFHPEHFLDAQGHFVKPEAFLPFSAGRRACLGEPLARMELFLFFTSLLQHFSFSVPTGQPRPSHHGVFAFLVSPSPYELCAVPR
compound,measurement,setting,value
O=C([C@H]1CCN1S(=O)(=O)c1c(F)c(F)c(F)c(F)c1F)N(Cc1ccc(C2CCCCC2)cn1)c1ccc2c(=O)[nH]ncc2c1 [Compound H182],inhibition at 10 µM,CYP2D6,9%
same,inhibition at 10 µM,CYP2C9,33%
same,Effect on anchorage-independent growth in soft-agar,MDA-MB-231 cells [1],potently and dose-dependently inhibited
same,inhibition at 10 µM,[2]; 10 μM H182,> 80%
same,IC50,[2]; SafetyScreen44 follow-up dose-response,0.4 µM
same,remaining at 1 h,"Plasma stability, mouse; 1 h",69%
same,remaining at 2 h,"Plasma stability, mouse; 2 h",23%
same,Annexin V/PI double-positive staining,MDA-MB-231 cells [3],roughly 12%
same,Effect on cell migration into the denuded area,MDA-MB-231 cells [4],inhibited the cell migration
same,IC50,[5],3.4 µM
same,IC50,hERG,> 10 µM
same,half-life,[6],21 min
